# Patent US6465476B1, “Immuno-modulator exhibiting antimicrobial and anti-mycrobacterial activities, method for producing the same and pharmaceutical preparation” (priority 1997, dated 2002)
# Read-outs that look alike come from different tables or passages of the source.
# Experiments:
# pulmonary tuberculosis = experiment: Clinical study on patients with pulmonary tuberculosis; type: in vivo, human; details: for B-lymphocytes / T-helpers / T-lymphocytes / T-suppressors / Th/Ts: pulmonary tuberculosis patients
# Description: The preparation of the present invention was also studied clinically on tuberculous patients. The age of the patients was under 30 years (6 persons) and under 35 years (2 persons).
# The clincal forms of pulmonary tuberculosis in the patients tested were as follows:
# infiltrative tuberculosis without cavities of decay and bacterioexcretion—2 persons;
# infiltrative tuberculosis with decay and bacterioexcretion—4 persons;
# disseminated pulmonary tuberculosis—2 people.
# The length of preparation intake was 1 to 2 months. The dose was equal to 0.6 g a day.
# The control group consisting of 5 persons with infiltrative pulmonary tuberculosis received conventional treatment including isoniazide. The tolerance for the preparation claimed was good. […] There was no change in functional indices of parenchymatous organs (liver, kidneys, pancreas). In 3 persons hospitalized with symptoms of intoxication the improvement of general physical and mental state was noted including normatization of body temperature, abatement of cough, decrease in amount of sputum excretion, improvement of appetite.
# [1] = system: tuberculosis mycobacteria H37Rv (USSR H37Rv); type: in vivo, tuberculosis mycobacteria; mice of the CBA line; details: for Damage index / Life duration / Weight of the lung: USSR H37Rv
# leprosy mycobacteria = experiment: Example 3, patient I., lepromatose-typed leprosy, combination treatment; type: in vivo, human
# Method: They had been ill for 8 years. BIN=66.8-10.8-5.5 where BIN means bacteriological index. […] HI=5,4 where HI means histological index. The patient was ordered the following treatment: 200 mg of isophonum internally twice a day, 200 mg of diuciphonum i.m. and 100 mg dimocifon internally twice a day.
# After 8 months of treatment the agent of leprosy vanished in the scrape of nasal mucosa, BIN was 8.3-14.2-4.2, the immunologic parameters normalized. Atfer a year of treatment many of the infiltrates resolved and the other sharply diminished in size and became soft and elastic with their colour changed from rust-brown to cyanotic. BIN became 5.7-4.8-5.3.
# There came lymphocytes in moderate numbers. […] The patient continues to undergo treatment.
# Tubazide-resistent H37Rv = type: in vivo, tuberculosis mycobacteria; mice of the CBA line; details: for Damage index / Life duration / Weight of the lung: Tubazide-resistent H37Rv
# macrophages = experiment: Phagocytic activity of macrophages (clearance from blood); type: in vivo, mice; details: 500 μg per mouse per os
# Description: The influence of the preparations in question on the phagocytic activity of macrophages was studid from clearence of the carcass in blood taken from the retroorbital sinus of mice that received the preparations per os. The results were estimated on the phagocytic index α (see Table 4).
# [2] = system: Kyp-4 strain of leprosy mycobacteria; experiment: Antileprous activity in mice infected by Shepard's procedure; type: in vivo, leprosy mycobacteria; male mice of the CBA line
# Description: Antileprous activity of isophonum as compared with that of diuciphonum was studied on male mice of the CBA line infected with the laboratory Kyp-4 strain of leprosy mycobacteria taken in an amount of 5000 and introduced intraplantedly by Shepard's procedure. The experiment lasted six months from the 7th of February to the […] 1996. Observed were 5 groups of mice with 15 mice in each group. All the animals were kept under the same conditions of the vivarium on a standard diat.
# The first group (controls): during six months of the experiment the mice received 0.5 ml of a starch suspension through a probe five times a week. After six months the animals were killed through a cervical dislocation of backbone, the organs were subjected to a bacterioscopic investigation, no pathologic deviations characteristic of any of the groups were found. The bacteriscopic investigation of the infected site was carried out by grinding the mouse foot in 2 ml of 0.1 percent solution of albumin, making a smear from 0.01 ml of the suspenstion and painting it by Ziel-Nielson's procedure and counting the number of leprosy micobacteria in 60 fields of vision to determine the number of micobacteria per mouse in each group.
# [3] = system: antibody-forming cells (AFC) in the spleen; experiment: Humoral immunity, localized-in-gel hemolysis, AFC accumulation in spleen of immunized mice; type: in vivo, hybrid mice F1 (CBA/C57BL6)
# Method: The influence on humoral immunity was studied using the method of localized-in-gel hemolysis. […] On the 5th day the number of antibody-forming cells (AFC) in the spleen of the mice was calculated and the immune response stimulation index was determined as the ratio of AFC number in the test group to the AFC number in the control group. The respective data are represented in Table 2.
# white unbred mice = experiment: Toxicity on white unbred mice by Litchfild-Wilkokson's procedure; type: in vivo; details: white unbred mice 18 to 20 g, sharp experiment
# [4] = system: chlamydious infection, PCND; experiment: Double blind clinical test, chlamydiosis and pulmonary chronic nonspecific diseases; type: in vivo, human
# Method: The investigation was carried out randomizedly by a “double blind method” on 45 patients aged 25 to 49 years.
# The group I consisting of 15 patients (10 persons with pulmonary chronic nonspecific diseases (PCND), 6 of them having chronic catarrhal obstructive bronchitis and 4 having chronic catarrhal nonobstructive bronchitis; 4 persons with chlamydious infection and one person with ureaplasmic infection) received the preparation claimed as monotherapy in a daily dose of 200 mg during 30 days. The group II consisting of 15 patients (8 persons with chlamydious infection, 7 persons with PCND, 5 of them having chronic catarrhal bronchitis, 2 having bronchiectatic disease) received the preparation of the present invention as monotherapy in a daily dose of 400 mg during 30 days. The group III consisting of 15 patients (13 persons with PCND, 7 of them having chronic catarrhal nonobstructive bronchitis and 6 having chronic catarrhal obstructive bronchitis; 2 persons with chlamydious infection) received a placebo.
# [5] = after three months, 0.6 g a day
# [6] = tuberculous patients, 0.6 g a day, 1 to 2 months
# [7] = after a year, combination with diuciphonum and dimocifon
structure (smiles),measurement,setting,value
"Cc1[nH]c(=O)[nH]c(=O)c1S(=O)(=O)NNC(=O)c1ccncc1.O [Isophonum, N-(6-methyl-2,4-dioxo-1,2,3,4-tetrahydro-5-pyrimidinsulfon)-N′-isonicotinoylhydrazide hydrate]",B-lymphocytes,"pulmonary tuberculosis; after one month, 0.6 g a day",12.0 ± 0.8
same,T-helpers,"pulmonary tuberculosis; after one month, 0.6 g a day",37.4 ± 0.3
same,T-lymphocytes,"pulmonary tuberculosis; after one month, 0.6 g a day",48.5 ± 1.0
same,T-suppressors,"pulmonary tuberculosis; after one month, 0.6 g a day",20.0 ± 0.6
same,Th/Ts,"pulmonary tuberculosis; after one month, 0.6 g a day",1.85 ± 0.2
same,B-lymphocytes,pulmonary tuberculosis; [5],11.0 ± 0.6
same,T-helpers,pulmonary tuberculosis; [5],55.5 ± 2.0
same,T-lymphocytes,pulmonary tuberculosis; [5],54.8 ± 0.7
same,Th/Ts,pulmonary tuberculosis; [5],2.75 ± 0.04
same,B-lymphocytes,pulmonary tuberculosis; before treatment,9.0 ± 0.3
same,T-helpers,pulmonary tuberculosis; before treatment,28.6 ± 0.2
same,T-lymphocytes,pulmonary tuberculosis; before treatment,42.2 ± 0.1
same,T-suppressors,pulmonary tuberculosis; before treatment,28.0 ± 1.2
same,Th/Ts,pulmonary tuberculosis; before treatment,1.0 ± 0.02
same,signs of toxication,pulmonary tuberculosis; [6],"No one of the patients exhibeted clinical, hematological signs of toxicaction"
same,tolerance for the preparation,pulmonary tuberculosis; [6],good
same,Damage index,[1]; 100 μg per mouse,1.91 ± 0.18
same,Life duration,[1]; 100 μg per mouse,34.6 ± 4.8
same,Weight of the lung,[1]; 100 μg per mouse,507.0 ± 48.4
same,Damage index,[1]; 200 μg per mouse,1.81 ± 0.21
same,Life duration,[1]; 200 μg per mouse,35.7 ± 5.2
same,Weight of the lung,[1]; 200 μg per mouse,495.4 ± 56.1
same,antituberculous action,"[1]; mouse, in vivo",pronounced antituberculous action
same,HI (histological index),leprosy mycobacteria; [7],4.8
same,amount of B-lymphocytes,leprosy mycobacteria; [7],12%
same,amount of T-helpers,leprosy mycobacteria; [7],66%
same,amount of T-lymphocytes,leprosy mycobacteria; [7],85%
same,immunoregilatory index,leprosy mycobacteria; [7],3.4
same,total number of lymphocytes,leprosy mycobacteria; [7],51%
same,HI (histological index),"leprosy mycobacteria; patient I., on hospitalization","5,4"
same,Damage index,Tubazide-resistent H37Rv; 100 μg per mouse,1.91 ± 0.18
same,Life duration,Tubazide-resistent H37Rv; 100 μg per mouse,35.2 ± 3.4
same,Weight of the lung,Tubazide-resistent H37Rv; 100 μg per mouse,493.4 ± 65.1
same,Damage index,Tubazide-resistent H37Rv; 200 μg per mouse,1.72 ± 0.24
same,Life duration,Tubazide-resistent H37Rv; 200 μg per mouse,37.1 ± 6.2
same,Weight of the lung,Tubazide-resistent H37Rv; 200 μg per mouse,478.2 ± 60.8
same,antituberculous action,Tubazide-resistent H37Rv; mycobacteria resistent to tubazide and streptomycin,pronounced antituberculous action
same,Phagocytic index,macrophages,6.55 ± 0.06
same,stimulation of the phagocytic activity of macrophages,macrophages,56%
same,"Phagocytic index, percent of controls",macrophages; controls 100%,(156%)
same,activity against the leprosy mycobacteria,[2]; 2.5 mg/kg,bactericide activity
same,Percentage of infected animals,"[2]; after six months, isophonum dose 2.5 mg/kg",0%
same,AFC-number in the spleen,"[3]; 500 μg per mouse per os in starch suspension, 5th day after immunization",2800 ± 200
same,Immune response stimulation index,"[3]; 500 μg per mouse per os, ratio of AFC test group to control group",5.6
same,toxicity,white unbred mice,exceed 7000 mg/kg
same,side effects,[4]; dose of 200 mg and dose of 400 mg,does not have any side effects
same,number of patients with improvement of clinico-immunologic indices,"[4]; group I, 15 patients, 200 mg per day, 30 days",14 people
same,number of patients with improvement of clinico-immunologic parameters,"[4]; group II, 15 patients, 400 mg daily, 30 days",14 persons
same,signs of individual intolerance,"[4]; one patient of group I, 200 mg per day, 3rd day of intake",nausea and vomiting
